From PubChem BioAssay AID330 (DTP/NCI, 2004)
Several values for one entry are separate records, joined by “and”; a condition that tells them apart may be missing. Equal entries are not always repeated. Inconclusive results and toxic doses are left out.

System: P388 leukemia ip, CD2F1 mice, survival T/C
Assay: NCI In Vivo Anticancer Drug Screen. Data for tumor model P388 Leukemia (intraperitoneal) in CD2F1 (CDF1) mice
Details: endpoint: median survival time, higher = longer survival
Procedure, shortened: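 Mice carrying the transplanted tumor received test compound or vehicle. Survival was recorded in each group, and the value is the treated-group measurement divided by that of the vehicle-treated control group.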

[1] = dose: 60.0 mg/kg/injection, schedule: Q01DX005 (ip), vehicle: Klucel (hydroxypropylcellulose) (HPC)
[2] = dose: 120.0 mg/kg/injection, schedule: Q01DX005 (ip), vehicle: Klucel (hydroxypropylcellulose) (HPC)
[3] = dose: 50.0 mg/kg/injection, schedule: Q01DX005 (ip), vehicle: Klucel (hydroxypropylcellulose) (HPC)
[4] = dose: 100.0 mg/kg/injection, schedule: Q01DX005 (ip), vehicle: Klucel (hydroxypropylcellulose) (HPC)
[5] = dose: 200.0 mg/kg/injection, schedule: Q01DX005 (ip), vehicle: Klucel (hydroxypropylcellulose) (HPC)
[6] = dose: 25.0 mg/kg/injection, schedule: Q01DX005 (ip), vehicle: saline
[7] = dose: 50.0 mg/kg/injection, schedule: Q01DX005 (ip), vehicle: saline
[8] = dose: 60.0 mg/kg/injection, schedule: Q01DX005 (ip), vehicle: saline with Tween-80
[9] = dose: 120.0 mg/kg/injection, schedule: Q01DX005 (ip), vehicle: saline with Tween-80
[10] = dose: 12.5 mg/kg/injection, schedule: Q01DX009 (ip), vehicle: saline with Tween-80
[11] = dose: 50.0 mg/kg/injection, schedule: Q01DX009 (ip), vehicle: saline with Tween-80
[12] = dose: 100.0 mg/kg/injection, schedule: Q01DX009 (ip), vehicle: saline with Tween-80
[13] = dose: 200.0 mg/kg/injection, schedule: Q01DX009 (ip), vehicle: saline with Tween-80
[14] = dose: 50.0 mg/kg/injection, schedule: Q01DX009 (ip), vehicle: Klucel (hydroxypropylcellulose) (HPC)
[15] = dose: 100.0 mg/kg/injection, schedule: Q01DX009 (ip), vehicle: Klucel (hydroxypropylcellulose) (HPC)

ClC(Cl)(Cl)C1=NC2=C(Br)C=C(Br)C3=NC(C(Br)(Br)Br)=NC(=N1)N32
T/C (dose: 60.0 mg/kg/injection, schedule: Q01DX005 (ip), vehicle: Klucel + Tween-80): 105 % of control
T/C (dose: 120.0 mg/kg/injection, schedule: Q01DX005 (ip), vehicle: Klucel + Tween-80): 110 % of control

C1CCC(N2CSC3CCCCC32)CC1 (stereo not given)
T/C [1]: 95 % of control
T/C [2]: 97 % of control

CC1(C)OC2OC(C3COC(=S)O3)C(O)C2O1 (stereo not given)
T/C [3]: 98 % of control
T/C [4]: 99 % of control
T/C [5]: 103 % of control

COc1ccc(CC2c3cc(OC)c(OC)c(OC)c3CC[N+]2(C)C)cc1Oc1ccc(CC2c3cc4c(c(OC)c3CC[N+]2(C)C)OCO4)cc1 (stereo not given)
T/C (dose: 1.56 mg/kg/injection, schedule: Q04DX003 (ip), vehicle: saline): 99 % of control
T/C (dose: 3.13 mg/kg/injection, schedule: Q04DX003 (ip), vehicle: saline): 101 % of control

COc1cc2oc(=O)cc(C)c2cc1[N+](=O)[O-]
T/C (dose: 50.0 mg/kg/injection, schedule: Q01DX009 (ip), vehicle: suspension in saline): 98 % of control
T/C (dose: 100.0 mg/kg/injection, schedule: Q01DX009 (ip), vehicle: suspension in saline): 95 % of control
T/C (dose: 200.0 mg/kg/injection, schedule: Q01DX009 (ip), vehicle: suspension in saline): 96 % of control

CCC1CCCCN1C (stereo not given)
T/C [6]: 103 % of control
T/C (dose: 25.0 mg/kg/injection, schedule: Q01DX009 (ip), vehicle: saline): 105 % of control
T/C [7]: 98 % of control
T/C (dose: 50.0 mg/kg/injection, schedule: Q01DX009 (ip), vehicle: saline): 110 % of control
T/C (dose: 100.0 mg/kg/injection, schedule: Q01DX005 (ip), vehicle: saline): 95 % of control

CCc1ccccc1NC(=O)C(=O)CC(=O)C1=C(C)Nc2ccccc2S1
T/C [8]: 90 % of control
T/C [9]: 96 % of control
T/C (dose: 240.0 mg/kg/injection, schedule: Q01DX005 (ip), vehicle: saline with Tween-80): 99 % of control

CC1(C)CC(C)(OC(=O)c2ccc(Cl)cc2)N=N1 (stereo not given)
T/C [10]: 104 % of control
T/C (dose: 25.0 mg/kg/injection, schedule: Q01DX009 (ip), vehicle: saline with Tween-80): 103 % of control
T/C [11]: 99 % of control
T/C [12]: 99 % of control
T/C [13]: 98 % of control

CC(=O)NC(C=O)C(O)C(O)C(O)C(=O)O (stereo not given)
T/C (dose: 25.0 mg/kg/injection, schedule: Q01DX009 (ip), vehicle: Klucel (hydroxypropylcellulose) (HPC)): 107 % of control
T/C [14]: 100 % of control
T/C [15]: 107 % of control

CCCCN1C(=O)CC(SC2CC(=O)N(CCCC)C2=O)C1=O (stereo not given)
T/C [3]: 97 % of control
T/C [4]: 86 % of control
T/C [5]: 103 % of control

S=C(Oc1ccccc1)Oc1ccccc1
T/C (dose: 6.25 mg/kg/injection, schedule: Q01DX009 (ip), vehicle: saline with Tween-80): 95 % of control
T/C [10]: 91 % of control
T/C [12]: 93 % of control

Cc1nc2c([N+](=O)[O-])cccc2c2ccccc12
T/C (dose: 100.0 mg/kg/injection, schedule: Q04DX002 (ip), vehicle: Klucel (hydroxypropylcellulose) (HPC)): 94 % of control
T/C (dose: 200.0 mg/kg/injection, schedule: Q04DX002 (ip), vehicle: Klucel (hydroxypropylcellulose) (HPC)): 89 % of control
T/C (dose: 400.0 mg/kg/injection, schedule: Q04DX002 (ip), vehicle: Klucel (hydroxypropylcellulose) (HPC)): 98 % of control

O=C(O)c1cc(-c2ccc(-c3ccc(-c4cc(C(=O)O)c5cc(Cl)ccc5n4)cc3)cc2)nc2ccc(Cl)cc12
T/C [12]: 92 % of control
T/C [13]: 94 % of control
T/C (dose: 400.0 mg/kg/injection, schedule: Q01DX009 (ip), vehicle: saline with Tween-80): 109 % of control

O=C1CSc2ccccc2-n2cccc21
T/C [1]: 89 % of control
T/C [2]: 109 % of control
T/C (dose: 240.0 mg/kg/injection, schedule: Q01DX005 (ip), vehicle: Klucel (hydroxypropylcellulose) (HPC)): 101 % of control

CCOC(=O)Nc1ccc(SCC2COC(Cn3ccnc3)(c3ccc(Cl)cc3Cl)O2)cc1 (stereo not given)
T/C (dose: 12.5 mg/kg/injection, schedule: Q01DX001 (ip), vehicle: saline): 104 % of control
T/C (dose: 25.0 mg/kg/injection, schedule: Q01DX001 (ip), vehicle: saline): 107 % of control
T/C (dose: 50.0 mg/kg/injection, schedule: Q01DX001 (ip), vehicle: saline): 110 % of control

CC(C(=O)O)N1C(=O)CNC1=O (stereo not given)
T/C [3]: 93 % of control
T/C [4]: 91 % of control
T/C [5]: 100 % of control

O=C1c2ccc(Cl)cc2NC(O)c2cccn21 (stereo not given)
T/C (dose: 0.1 mg/kg/injection, schedule: Q01DX005 (ip), vehicle: water): 99 % of control
T/C (dose: 0.2 mg/kg/injection, schedule: Q01DX005 (ip), vehicle: water): 98 % of control
T/C (dose: 0.4 mg/kg/injection, schedule: Q01DX005 (ip), vehicle: water): 98 % of control
T/C (dose: 0.8 mg/kg/injection, schedule: Q01DX005 (ip), vehicle: water): 100 % of control
T/C (dose: 1.6 mg/kg/injection, schedule: Q01DX005 (ip), vehicle: water): 98 % of control
T/C (dose: 5.0 mg/kg/injection, schedule: Q01DX005 (ip), vehicle: distilled water + Tween-80): 95 % of control
T/C (dose: 10.0 mg/kg/injection, schedule: Q01DX005 (ip), vehicle: distilled water + Tween-80): 99 % of control
T/C (dose: 20.0 mg/kg/injection, schedule: Q01DX005 (ip), vehicle: distilled water + Tween-80): 100 % of control
T/C (dose: 40.0 mg/kg/injection, schedule: Q01DX005 (ip), vehicle: distilled water + Tween-80): 93 % of control
T/C (dose: 80.0 mg/kg/injection, schedule: Q01DX005 (ip), vehicle: distilled water + Tween-80): 98 % of control

CC(C)N(C)N=Nc1ccc(C(N)=O)cc1
T/C [14]: 114 % of control and 120 % of control
T/C [15]: 113 % of control

NP1(N)=NP(N)(N)=NP(N)(N)=NP(N)(N)=N1
T/C [3]: 96 % of control
T/C [4]: 96 % of control
T/C [5]: 99 % of control

CN(C)Cc1onc(-c2c(Cl)cccc2Cl)c1C(=O)O
T/C [8]: 103 % of control
T/C [9]: 95 % of control

CCOC(=O)C(C(=O)c1ccccc1)C(C)(C)C (stereo not given)
T/C (dose: 37.5 mg/kg/injection, schedule: Q01DX009 (ip), vehicle: saline with Tween-80): 103 % of control
T/C (dose: 75.0 mg/kg/injection, schedule: Q01DX009 (ip), vehicle: saline with Tween-80): 105 % of control
T/C (dose: 150.0 mg/kg/injection, schedule: Q01DX009 (ip), vehicle: saline with Tween-80): 112 % of control

C=C(C)C1CC2(C)C(C)C(OC(=O)/C(C)=C/C)CCC2C(OC(=O)C=C(C)C)C1=O (stereo not given)
T/C (dose: 75.0 mg/kg/injection, schedule: Q04DX002 (ip), vehicle: Klucel (hydroxypropylcellulose) (HPC)): 99 % of control
T/C (dose: 150.0 mg/kg/injection, schedule: Q04DX002 (ip), vehicle: Klucel (hydroxypropylcellulose) (HPC)): 98 % of control
T/C (dose: 300.0 mg/kg/injection, schedule: Q04DX002 (ip), vehicle: Klucel (hydroxypropylcellulose) (HPC)): 106 % of control

CN(N=O)C(=O)Nc1cc(=O)[nH]c(SCc2ccccc2)n1
T/C (dose: 12.5 mg/kg/injection, schedule: Q01DX005 (ip), vehicle: Klucel (hydroxypropylcellulose) (HPC)): 104 % of control
T/C (dose: 25.0 mg/kg/injection, schedule: Q01DX005 (ip), vehicle: Klucel (hydroxypropylcellulose) (HPC)): 114 % of control
T/C [3]: 124 % of control
T/C [4]: 160 % of control

O=C(O)CC(=O)Nc1ccccc1S
T/C [11]: 102 % of control
T/C [12]: 90 % of control
T/C [13]: 101 % of control

CCCCN(CCCC)CCOc1ccc(/C(CC)=C(/CC)c2ccc(OCCN(CCCC)CCCC)cc2)cc1
T/C (dose: 12.5 mg/kg/injection, schedule: Q01DX005 (ip), vehicle: saline): 100 % of control
T/C [6]: 87 % of control
T/C [7]: 100 % of control and 102 % of control

CON1C(=O)OCC(c2ccccc2)(c2ccccc2)C1=O
T/C (dose: 50.0 mg/kg/injection, schedule: Q01DX005 (ip), vehicle: saline with Tween-80): 99 % of control
T/C (dose: 100.0 mg/kg/injection, schedule: Q01DX005 (ip), vehicle: saline with Tween-80): 104 % of control
T/C (dose: 200.0 mg/kg/injection, schedule: Q01DX005 (ip), vehicle: saline with Tween-80): 91 % of control
